The test system of assay [1] is TGF-β signal transduction (Smad3/Smad4 complex activation) in x9CAGA/CCL64 cells. As to the kind of experiment: Evaluation of TGF-β signal transduction inhibitory activity (CAGA-luciferase reporter, x9CAGA/CCL64 cells stimulated with human TGF-β1). The format is cell-based, mink. The settings on record: 0.5 ng/ml human TGF-β1; for inhibition at 50 µM: 50 μM test compound. How it is done: The biological activity of a compound was determined by measuring the activation of Smad3/Smad4 complex which is a transcription factor showing activation induced by TGF-β stimulation. That is, a reporter plasmid having a DNA sequence (CAGA sequence), which is activated by binding to Smad3/Smad4 complex, is linked to the upstream of the luciferase gene (luminescence enzyme) was prepared. Mink lung epithelial cells CCL64 (named as x9CAGA/CCL64 cells) stably incorporating this reporter plasmid were established. The x9CAGA/CCL64 cells were cultured in DMEM medium containing 10% FBS, penicillin (100 U/ml), streptomycin ([…]), and blasticidin S (1 μg/ml). The x9CAGA/CCL64 cells were seeded in a 96 well plate at a concentration of 1.0×10^4 cells/well, and cultured in a 5% CO2 incubator at 37° C. The next day, the medium was changed to DMEM medium containing 0.2% FBS, and the test compound was added. […] After culture for 16 hr, the cells were washed with PBS, and lysed with 30 μl of cell lysis solution. […] The luminescence level of each well was measured using a Packard EnVision plate reader. The TGF-β signal transduction inhibitory activity of each compound in the x9CAGA/CCL64 cells was calculated from the ratio of the measurement values of the test compound-free well and the well with addition.

The test system of assay [2] is mouse bile duct ligation induced hepatic fibrosis model. As to the kind of experiment: Anti-fibrillization action in mouse bile duct ligation induced hepatic fibrosis model (BDL model). In kind it is in vivo. The settings on record: ICR mice, tail vein once a day for 14 days, qPCR vs GAPDH, FIG. 4. How it is done: Hepatopathy caused by accumulation of bile in the liver and therewith associated liver fibrillization are induced by ligating the bile duct of mouse. The effect of the test compound on the hepatopathy and liver fibrillization associated therewith was evaluated. […]
mRNA was extracted from the hepatic tissue preserved in RNALater by using an RNA purification kit RNeasy Micro Kit (manufactured by QIAGEN), and the RNA concentration was determined using a spectrophotometer (Nano Drop). […] Using SYBR® Premix EX Taq™ (manufactured by TAKARA), a reaction mixture was prepared according to the package insert, qPCR reaction was performed using respective primers for αSMA and the internal standard GAPDH (manufactured by Invitrogen), and the mRNA expression level was quantified.
(In qPCR the cycle at which signal appears reflects the starting amount.)

As a reminder, the inhibition is how much of the control response was suppressed. Higher therefore signals a strong effect. What is called IC50 is the concentration that inhibits the measured activity by half. Low readings indicate greater potency, high ones weaker potency.

Consider `Cc1ccc(N(C)S(=O)(=O)c2cccc(S(=O)(=O)N(C)CC3CCN(C(=O)OC(C)(C)C)CC3)c2)cc1` [Y191, 4-({methyl-[3-(methyl-p-tolylsulfamoyl)benzenesulfonyl]amino}methyl)piperidine-1-carboxylic acid tert-butyl ester], for which 20 µM produced 54% inhibition in assay [1] (20 μM test compound).

Take `CC(O)c1ccc(NS(=O)(=O)c2cccc(S(=O)(=O)NCC3CCN(C(=O)OC(C)(C)C)CC3)c2)cc1` (centres unmarked) [Y195, 4-({3-[4-(1-hydroxyethyl)phenylsulfamoyl]benzenesulfonylamino}methyl)-piperidine-1-carboxylic acid tert-butyl ester]: in assay [1] (20 μM test compound), the inhibition at 20 µM was > 12.2%.

Take `CC(C)(C)OC(=O)N1CCC(CNS(=O)(=O)c2cccc(S(N)(=O)=O)c2)CC1` [Y082, 4-[(3-sulfamoylbenzenesulfonylamino)methyl]piperidine-1-carboxylic acid tert-butyl ester]: the inhibition at 50 µM in assay [1] was 29%.

`O=C(OCc1ccccc1)N1CCC(CNS(=O)(=O)c2cccc(S(=O)(=O)N3CCCCC3)c2)CC1` [Y053, 4-{[3-(piperidine-1-sulfonyl)benzenesulfonylamino]-methyl}-piperidine-1-carboxylic acid benzyl ester]: the inhibition at 50 µM in assay [1] turned out to be 67%.

The molecule `CC(C)(C)OC(=O)N1CCC(CNS(=O)(=O)c2ccccc2)CC1` [Y083, 4-(benzenesulfonylaminomethyl)piperidine-1-carboxylic acid tert-butyl ester] had an inhibition at 50 µM in assay [1] of 24%.

`CN(C)c1ccc(NS(=O)(=O)c2cccc(S(=O)(=O)NCC3CCNCC3)c2)cc1-c1ccco1` [Y516, 4-{[3-(4-dimethylamino-3-furan-2-yl-phenylsulfamoyl)benzenesulfonylamino]methyl}piperidine] had an IC50 in assay [1] of 66 µM. Besides, the “mRNA expression level of α smooth muscle actin in the liver tissue” value in assay [2] is given as “significantly suppressed”.

Take `CN(CC1CCN(C(=O)OC(C)(C)C)CC1)S(=O)(=O)c1cccc(S(=O)(=O)N(C)c2ccc(C(C)(C)C)cc2)c1` [Y205, 4-[({3-[(4-tert-butylphenyl)methylsulfamoyl]benzenesulfonyl}methylamino)-methyl]piperidine-1-carboxylic acid tert-butyl ester]: in assay [1] (20 μM test compound), 20 µM produced 60% inhibition.

In assay [1], `CC(C)(C)OC(=O)N1CCC(CNS(=O)(=O)c2cccc(S(=O)(=O)N3CCOCC3)c2)CC1` [Y081, 4-{[3-(morpholine-4-sulfonyl)benzenesulfonylamino]methyl}piperidine-1-carboxylic acid tert-butyl ester] yielded an inhibition at 50 µM of 45%.

For `CCCC(=O)N1CCC(CNS(=O)(=O)c2cccc(S(=O)(=O)Nc3ccc(N(C)C)c(-c4ccco4)c3)c2)CC1` [Y639, 4-{[3-(4-dimethylamino-3-furan-2-yl-phenylsulfamoyl)benzenesulfonylamino]methyl}-1-butyryl-piperidine], inhibition in assay [1] was half-maximal at 3.9 µM (IC50).

For the molecule “4-{[3-(4-oxanylmethoxyphenylsulfamoyl)benzenesulfonylamino]methyl}-piperidine-1-carboxylic acid tert-butyl ester [Y198]”, the “inhibitory activity (%)” value in assay [1] (20 μM test compound) is given as “(>30.0%)”.

Take `CCN(CC)S(=O)(=O)c1cccc(S(=O)(=O)NCC2CCN(C(=O)OC(C)(C)C)CC2)c1` [Y080, 4-[(3-diethylsulfamoylbenzenesulfonylamino)methyl]piperidine-1-carboxylic acid tert-butyl ester]: the inhibition at 50 µM in assay [1] came to 66%.

`CC(C)(C)OC(=O)N1CCC(CNS(=O)(=O)c2cccc(S(=O)(=O)NCC3CCCCC3)c2)CC1` [Y101, 4-{[3-(cyclohexylmethylsulfamoyl)benzenesulfonylamino]methyl}-piperidine-1-carboxylic acid tert-butyl ester] registered an inhibition at 50 µM in assay [1] of 74%.

Consider `CC(C)(C)OC(=O)N1CCC(CNS(=O)(=O)c2cccc(S(=O)(=O)N3CCCCC3)c2)CC1` [Y029, 4-{[3-(piperidine-1-sulfonyl)benzenesulfonylamino]methyl}piperidine-1-carboxylic acid tert-butyl ester], for which the inhibition at 50 µM in assay [1] was determined as 88%.

In turn, `Cc1c(C)c(S(=O)(=O)NCC2CCN(C(=O)OC(C)(C)C)CC2)c(C)c(S(=O)(=O)Nc2ccc(C(C)(C)C)cc2)c1C` [Y335, 4-{[3-(4-tert-butylphenylsulfamoyl)-2,4,5,6-tetramethylbenzenesulfonylamino]methyl}piperidine-1-carboxylic acid tert-butyl ester] had an IC50 in assay [1] of 0.8 µM.

For the molecule `CC(C)(C)OC(=O)N1CCN(S(=O)(=O)c2cccc(S(=O)(=O)N3CCCCC3)c2)CC1` [Y043, 4-[3-(piperidine-1-sulfonyl)benzenesulfonyl]piperazine-1-carboxylic acid tert-butyl ester], the inhibition at 50 µM in assay [1] worked out at 67%.

As for `CC(=O)c1ccc(NS(=O)(=O)c2cccc(S(=O)(=O)NCC3CCN(C(=O)OC(C)(C)C)CC3)c2)cc1` [Y192, 4-{[3-(4-acetylphenylsulfamoyl)benzenesulfonylamino]methyl}piperidine-1-carboxylic acid tert-butyl ester], in assay [1] (20 μM test compound), the inhibition at 20 µM was > 18.4%.

The values above are taken from patent US8772297B2, “TGF-β signal transduction inhibitor” (Kyoto University, priority 2010, dated 2014).
